Assays:
C. neoformans = experiment: Inhibition of growth of Cryptococcus neoformans, Example 2 antifungal assay; assay type: cell-based; conditions: ½ strength PDB, 30° C., A595
Experimental: (§1) The inhibitory effects of the plant defensins on the growth of Candida albicans, Aspergillus fumigatus (obtained from the National Mycology Reference Centre, South Australia Pathology at the Women's and Children's Hospital, Adelaide, Australia), C. glabrata, C. tropicalis, A. flavus, A. niger, A. fumigants, Cryptococcus neoformans and C. gattii (obtained from Dee Carter, University of Sydney, New South Wales, Australia) are measured essentially as described by Broekaert et al. (1990) FEMS Microbiol Lett 69:55-59.
(§2) Spores of A. flavus. A. niger and A. fumigatus are isolated from sporulating fungus growing on ½ strength Sabouraud dextrose agar. Spores were removed from the plates by the addition of ½ strength potato dextrose broth (PDB). C. albicans, C. glabrata, C. tropicalis, C. neoformans and C. gattii cells are grown in Yeast Peptone Broth (YPD) for 16 h. Spore and cell concentrations are measured using a hemocytometer.
(§3) Antifungal assays are conducted in 96 well microtitre plates essentially as herein described. Wells are loaded with 20 μL of filter sterilized (0.22 μm syringe filter, Millipore) defensin (10× stock for each final concentration) or water and 80 μL of 5×10^4 spores/mL (A. flavus, A. niger, A. fumigatus), 5,000 cells/mL (C. albicans, C. glabrata, C. tropicalis) or 1×10^6 cells/mL (C. neoformans, C. gattii) in ½ strength PDB. The plates are incubated at 30° C. Fungal growth is assayed by measuring optical density at 595 nm (A595) using a microtitre plate reader (SpectraMax Pro M2; Molecular Devices. Growth is allowed to proceed until the optical density (OD) of the fungus in the absence of any test defensin reached an OD of 0.2. Each test is performed in duplicate.

C. glabrata = experiment: Inhibition of growth of C. glabrata, Example 2 antifungal assay; assay type: cell-based; conditions: ½ strength PDB, 30° C., A595
Experimental: as §1, §2, §3

C. gattii = experiment: Inhibition of growth of C. gattii, Example 2 antifungal assay; assay type: cell-based; conditions: ½ strength PDB, 30° C., A595
Experimental: as §1, §2, §3

C. tropicalis = experiment: Inhibition of growth of C. tropicalis, Example 2 antifungal assay; assay type: cell-based; conditions: ½ strength PDB, 30° C., A595
Experimental: as §1, §2, §3

B. subtilis = experiment: Inhibition of the growth of Bacillus subtilis (OD595, 18 hours); assay type: cell-based; conditions: at the concentrations tested (0.3125-20 μM)
Experimental: (§4) A single E. coli or B. subtilis colony was used to inoculate 5 ml of Luria-Bertani media and grown overnight at 37° C. The following day, the optical density of the culture was measured and the bacteria diluted to an optical density at 600 nm (OD600) of 0.01 in Mueller-Hinton Broth. Diluted E. coli or B. subtilis were added to 96-well plates with defensins at concentrations of 20 μM, 10 μM, 5 μM, 2.5 μM, 1.25 μM, 0.625 μM or 0.3125 μM. Plates were read at OD595 to obtain time zero data points. Plates were incubated at 37° C. for 18 hours before reading again at OD595 to assess the amount of bacterial growth.

T. interdigitale = experiment: Inhibition of growth of T. interdigitale by plant defensins (microtitre A595 antifungal assay); assay type: cell-based, Trichophyton interdigitale; conditions: ½ strength PDB, 30° C.
Experimental: (§5) The inhibitory effects of the plant defensins on the growth of Trichophyton rubrum, T. interdigitale, Microsporum fulvum and C. albicans (all obtained from the National Mycology Reference Centre, South Australia Pathology at the Women's and Children's Hospital, Adelaide, Australia) are measured essentially as described by Broekaert et al. (1990) FEMS Microbiol Lett 69:55-59.
as §2, with “T. rubrum, T. interdigitale” for “A. flavus. A. niger”, “M. fulvum” for “A. fumigatus”, “albicans” for “albicans, C. glabrata, C. tropicalis, C. neoformans and C. gattii”
as §3, with “Ξ m” for “μm”, “(T. rubrum, T. interdigitale, M. fulvum) or” for “(A. flavus, A. niger, A. fumigatus),”, “albicans)” for “albicans, C. glabrata, C. tropicalis) or 1×10^6 cells/mL (C. neoformans, C. gattii)”

A. flavus = experiment: Inhibition of growth of A. flavus, Example 2 antifungal assay; assay type: cell-based; conditions: ½ strength PDB, 30° C., A595
Experimental: as §1, §2, §3

[1] = test system: clinical isolates of T. rubrum; experiment: Cell survival assay for clinical isolates of T. rubrum (plating on agar after defensin treatment, FIG. 3); assay type: cell-based, Trichophyton rubrum
Experimental: FIG. 3(A) is a photographic representations of surviving colonies of T. rubrum clinical isolate 14-01 grown on agar plates after treatment with 100 μM HXL008 for 72 h.
FIG. 3(B) is a photographic representation of surviving colonies of T. rubrum clinical isolate 14-02 grown on agar plates after treatment with 100 μM HXL008 for 72 h.
FIG. 3(C) is a photographic representation of surviving colonies of T. rubrum clinical isolate 14-03 grown on agar plates after treatment with 100 μM HXL008 for 72 h.
FIG. 3(D) is a photographic representation of surviving colonies of T. rubrum clinical isolate 13-04 grown on agar plates after treatment with 100 μM HXL008 for 72 h.
After incubation for 72 h, the media from wells containing clinical isolates of T. rubrum incubated with 100 […] HXL008 was plated onto fresh Sabouraud dextrose agar. Plates were incubated at 30° C. for 5 days to allow colonies to develop before being photographed.

T. rubrum = experiment: Inhibition of growth of Trichophyton rubrum by plant defensins (microtitre A595 antifungal assay); assay type: cell-based; conditions: ½ strength PDB, 30° C.
Experimental: as §5
as §2, with “T. rubrum, T. interdigitale” for “A. flavus. A. niger”, “M. fulvum” for “A. fumigatus”, “albicans” for “albicans, C. glabrata, C. tropicalis, C. neoformans and C. gattii”
as §3, with “Ξ m” for “μm”, “(T. rubrum, T. interdigitale, M. fulvum) or” for “(A. flavus, A. niger, A. fumigatus),”, “albicans)” for “albicans, C. glabrata, C. tropicalis) or 1×10^6 cells/mL (C. neoformans, C. gattii)”

E. coli = assay type: cell-based, Escherichia coli
Experimental: as §4

A. niger = experiment: Inhibition of growth of A. niger, Example 2 antifungal assay; assay type: cell-based; conditions: ½ strength PDB, 30° C., A595
Experimental: as §1, §2, §3

[2] = test system: Trichophyton rubrum, T. interdigitale, Microsporum fulvum and C. albicans; experiment: Inhibition assays of Example 1, summary across the range of fungal pathogens; assay type: cell-based; conditions: summary of Table 3, at the concentrations tested
Experimental: as §5
as §2, with “T. rubrum, T. interdigitale” for “A. flavus. A. niger”, “M. fulvum” for “A. fumigatus”, “albicans” for “albicans, C. glabrata, C. tropicalis, C. neoformans and C. gattii”
as §3, with “Ξ m” for “μm”, “(T. rubrum, T. interdigitale, M. fulvum) or” for “(A. flavus, A. niger, A. fumigatus),”, “albicans)” for “albicans, C. glabrata, C. tropicalis) or 1×10^6 cells/mL (C. neoformans, C. gattii)”

T. albicans = experiment: Inhibition of growth of C. albicans by plant defensins, Example 1 (microtitre A595 antifungal assay); assay type: cell-based; conditions: Table 3; ½ strength PDB, 30° C., A595
Experimental: as §5
as §2, with “T. rubrum, T. interdigitale” for “A. flavus. A. niger”, “M. fulvum” for “A. fumigatus”, “albicans” for “albicans, C. glabrata, C. tropicalis, C. neoformans and C. gattii”
as §3, with “Ξ m” for “μm”, “(T. rubrum, T. interdigitale, M. fulvum) or” for “(A. flavus, A. niger, A. fumigatus),”, “albicans)” for “albicans, C. glabrata, C. tropicalis) or 1×10^6 cells/mL (C. neoformans, C. gattii)”

M. fulvum = experiment: Inhibition of growth of Microsporum fulvum by plant defensins (microtitre A595 antifungal assay); assay type: cell-based; conditions: ½ strength PDB, 30° C., A595
Experimental: as §5
as §2, with “T. rubrum, T. interdigitale” for “A. flavus. A. niger”, “M. fulvum” for “A. fumigatus”, “albicans” for “albicans, C. glabrata, C. tropicalis, C. neoformans and C. gattii”
as §3, with “Ξ m” for “μm”, “(T. rubrum, T. interdigitale, M. fulvum) or” for “(A. flavus, A. niger, A. fumigatus),”, “albicans)” for “albicans, C. glabrata, C. tropicalis) or 1×10^6 cells/mL (C. neoformans, C. gattii)”

A. fumigatus = experiment: Inhibition of growth of Aspergillus fumigatus, Example 2 antifungal assay; assay type: cell-based; conditions: ½ strength PDB, 30° C., A595
Experimental: as §1, §2, §3

For “HXL008: Class I plant defensin from Picramnia pentandra (KVCTKPSKFFKGLCGTDGACTTACRKEGLHSGYCQLKGFLNSVCVCRKHC; HXL008 Picramnia pentandra)”, the “IC50 against C. neoformans” value (C. neoformans) was 2.5 µg/mL, the “IC50 against C. glabrata” value (C. glabrata) was 20 µg/mL and the “IC50 against C. gattii” value (C. gattii) was 12 µg/mL. The “IC50 against C. tropicalis” value (C. tropicalis) was 7 µg/mL, the “Inhibition of growth of B. subtilis” value (B. subtilis) was “did not inhibit the growth” and the “IC50 against T. interdigitale” value (T. interdigitale) was 3.5 µg/mL. The “IC50 against A. flavus” value (A. flavus) was 40 µg/mL, the “Surviving colonies on agar plates after incubation with defensin” value ([1]; 100 µg/mL HXL008 for 72 h, plated, 30° C. for 5 days) was 1-3 colonies and the “Cell survival of T. rubrum clinical isolates” value ([1]; incubated with HXL008 for 72 h) was “almost all the cells were dead”. For the same substance, the “IC50 against T. rubrum” value (T. rubrum) was 3 µg/mL, the IC50 (E. coli; Mueller-Hinton Broth, 37° C., 18 hours, up to 20 μM, read-out: IC50 against E. coli) was over 20 µM and the “Inhibition of growth of E. coli” value (E. coli; at the concentrations tested (0.3125-20 μM)) was “did not inhibit the growth”. For the same substance, the “IC50 against A. niger” value (A. niger) was 42 µg/mL, the “Activity across the range of fungal pathogens” value [2] was “most effective” and the “IC50 against T. albicans” value (T. albicans) was 20 µg/mL. For the same substance, the “IC50 against M. fulvum” value (M. fulvum) was 7 µg/mL and the “IC50 against A. fumigatus” value (A. fumigatus) was 7.5 µg/mL.

— patent publication US20180193412A1, “Method of In Vivo Treatment” (Hexima Limited, priority 2015, published 2018)
